Measured values taken from PubChem BioAssay AID2060605 (Molecular Pharmacology Branch, DTP, NCI, 2025).

Tested on: 947758-054-R-J2-PDC spheroid growth, percent test/control
Experiment: Anticancer human tumor 947758-054-R-J2-PDC patient-derived colon adenocarcinoma cell line growth inhibition [CLK]
Settings: spheroids with HUVEC and MSC; for IC50: curve of first compound; for viability, T/C: stronger effect = lower value
Method in brief: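 Multi-cell-type spheroids combined patient-derived tumor cells with HUVEC endothelial cells and human mesenchymal stem cells. Paired agents were dosed in half-log steps down from about clinical Cmax, or from 10 microM where Cmax was unknown.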
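Note: spheroids exposed to compounds for one week before readout.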
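Throughout, for viability, T/C: 100% = DMSO vehicle control wells.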

**Q.** For `C=CC(=O)Nc1cc(Nc2nccc(-c3cn(C)c4ccccc34)n2)c(OC)cc1N(C)CCN(C)C` + CNC(=O)c1ccc(Nc2nc(OC3CCCC3)c3c(-c4ccc5nc(C)oc5c4)c[nH]c3n2)c(OC)c1, which IC50 (second compound 0.0316 µM) is on record?
**A.** Its IC50 is over 300 nM.

**Q.** And the IC50 (second compound 0.1 µM)?
**A.** Its IC50 is over 300 nM.

**Q.** And the IC50 (second compound 0.316 µM)?
**A.** The IC50 was 251 nM.

**Q.** What about the IC50 (second compound 1 µM) of the same compound?
**A.** The IC50 was 122 nM.

**Q.** And the IC50 (second compound 3.16 µM)?
**A.** Its IC50 is under 0.949 nM.

**Q.** And the IC50 (second compound 10 µM)?
**A.** The IC50 was under 0.949 nM.

**Q.** What about the viability, T/C (second compound 0.0316 µM, first compound 0.000949 µM) of the same compound?
**A.** Its viability, T/C is 90%.

**Q.** And the viability, T/C (second compound 0.0316 µM, first compound 0.003 µM)?
**A.** The viability, T/C was 78.9%.

**Q.** And the viability, T/C (second compound 0.0316 µM, first compound 0.00949 µM)?
**A.** Its viability, T/C is 80.4%.

**Q.** And the viability, T/C (second compound 0.0316 µM, first compound 0.03 µM)?
**A.** Its viability, T/C is 94.6%.

**Q.** What about the viability, T/C (second compound 0.0316 µM, first compound 0.0949 µM) of the same compound?
**A.** The viability, T/C was 86.2%.

**Q.** What about the viability, T/C (second compound 0.0316 µM, first compound 0.3 µM) of the same compound?
**A.** The viability, T/C was 64%.

**Q.** What about the viability, T/C (second compound 0.1 µM, first compound 0.000949 µM) of the same compound?
**A.** Its viability, T/C is 102%.

**Q.** And the viability, T/C (second compound 0.1 µM, first compound 0.003 µM)?
**A.** Its viability, T/C is 94.9%.

**Q.** What about the viability, T/C (second compound 0.1 µM, first compound 0.00949 µM) of the same compound?
**A.** The viability, T/C was 83.7%.

**Q.** What about the viability, T/C (second compound 0.1 µM, first compound 0.03 µM) of the same compound?
**A.** The viability, T/C was 87.9%.

**Q.** And the viability, T/C (second compound 0.1 µM, first compound 0.0949 µM)?
**A.** The viability, T/C was 78.1%.

**Q.** And the viability, T/C (second compound 0.1 µM, first compound 0.3 µM)?
**A.** Its viability, T/C is 52.5%.

**Q.** What about the viability, T/C (second compound 0.316 µM, first compound 0.000949 µM) of the same compound?
**A.** The viability, T/C was 88.2%.

**Q.** What about the viability, T/C (second compound 0.316 µM, first compound 0.003 µM) of the same compound?
**A.** The viability, T/C was 81.8%.

**Q.** And the viability, T/C (second compound 0.316 µM, first compound 0.00949 µM)?
**A.** Its viability, T/C is 65.8%.

**Q.** What about the viability, T/C (second compound 0.316 µM, first compound 0.03 µM) of the same compound?
**A.** The viability, T/C was 96.3%.

**Q.** What about the viability, T/C (second compound 0.316 µM, first compound 0.0949 µM) of the same compound?
**A.** Its viability, T/C is 108%.

**Q.** And the viability, T/C (second compound 0.316 µM, first compound 0.3 µM)?
**A.** The viability, T/C was 43.1%.

**Q.** What about the viability, T/C (second compound 1 µM, first compound 0.000949 µM) of the same compound?
**A.** Its viability, T/C is 70.2%.

**Q.** What about the viability, T/C (second compound 1 µM, first compound 0.003 µM) of the same compound?
**A.** Its viability, T/C is 53.1%.

**Q.** And the viability, T/C (second compound 1 µM, first compound 0.00949 µM)?
**A.** The viability, T/C was 47.1%.

**Q.** And the viability, T/C (second compound 1 µM, first compound 0.03 µM)?
**A.** The viability, T/C was 52%.

**Q.** What about the viability, T/C (second compound 1 µM, first compound 0.0949 µM) of the same compound?
**A.** The viability, T/C was 62.8%.

**Q.** And the viability, T/C (second compound 1 µM, first compound 0.3 µM)?
**A.** Its viability, T/C is 25.4%.

**Q.** What about the viability, T/C (second compound 3.16 µM, first compound 0.000949 µM) of the same compound?
**A.** The viability, T/C was 48.9%.

**Q.** What about the viability, T/C (second compound 3.16 µM, first compound 0.003 µM) of the same compound?
**A.** The viability, T/C was 44.4%.

**Q.** And the viability, T/C (second compound 3.16 µM, first compound 0.00949 µM)?
**A.** Its viability, T/C is 44.8%.

**Q.** What about the viability, T/C (second compound 3.16 µM, first compound 0.03 µM) of the same compound?
**A.** The viability, T/C was 44%.

**Q.** And the viability, T/C (second compound 3.16 µM, first compound 0.0949 µM)?
**A.** Its viability, T/C is 39.5%.

**Q.** What about the viability, T/C (second compound 3.16 µM, first compound 0.3 µM) of the same compound?
**A.** The viability, T/C was 23.1%.

**Q.** And the viability, T/C (second compound 10 µM, first compound 0.000949 µM)?
**A.** Its viability, T/C is 39.8%.

**Q.** And the viability, T/C (second compound 10 µM, first compound 0.003 µM)?
**A.** Its viability, T/C is 39.5%.

**Q.** And the viability, T/C (second compound 10 µM, first compound 0.00949 µM)?
**A.** Its viability, T/C is 42.7%.

**Q.** What about the viability, T/C (second compound 10 µM, first compound 0.03 µM) of the same compound?
**A.** Its viability, T/C is 35.2%.

**Q.** And the viability, T/C (second compound 10 µM, first compound 0.0949 µM)?
**A.** The viability, T/C was 20.9%.

**Q.** And the viability, T/C (second compound 10 µM, first compound 0.3 µM)?
**A.** The viability, T/C was 18.3%.

**Q.** Which IC50 (second compound 0.0316 µM) does the source give for `CCc1c2c(nc3ccc(O)cc13)-c1cc3c(c(=O)n1C2)COC(=O)[C@]3(O)CC` + CNC(=O)c1ccc(Nc2nc(OC3CCCC3)c3c(-c4ccc5nc(C)oc5c4)c[nH]c3n2)c(OC)c1 here?
**A.** The IC50 was under 3.16 nM.

**Q.** And the IC50 (second compound 0.1 µM)?
**A.** Its IC50 is 4.57 nM.

**Q.** What about the IC50 (second compound 0.316 µM) of the same compound?
**A.** Its IC50 is under 3.16 nM.

**Q.** What about the IC50 (second compound 1 µM) of the same compound?
**A.** Its IC50 is under 3.16 nM.

**Q.** What about the IC50 (second compound 3.16 µM) of the same compound?
**A.** The IC50 was under 3.16 nM.

**Q.** And the IC50 (second compound 10 µM)?
**A.** The IC50 was under 3.16 nM.

**Q.** What about the viability, T/C (second compound 0.0316 µM, first compound 0.00316 µM) of the same compound?
**A.** The viability, T/C was 45.2%.

**Q.** What about the viability, T/C (second compound 0.0316 µM, first compound 0.01 µM) of the same compound?
**A.** Its viability, T/C is 30.2%.

**Q.** And the viability, T/C (second compound 0.0316 µM, first compound 0.0316 µM)?
**A.** Its viability, T/C is 23.5%.

**Q.** What about the viability, T/C (second compound 0.0316 µM, first compound 0.1 µM) of the same compound?
**A.** The viability, T/C was 17.9%.

**Q.** What about the viability, T/C (second compound 0.0316 µM, first compound 0.316 µM) of the same compound?
**A.** Its viability, T/C is 8.37%.

**Q.** What about the viability, T/C (second compound 0.0316 µM, first compound 1 µM) of the same compound?
**A.** The viability, T/C was 1.73%.

**Q.** And the viability, T/C (second compound 0.1 µM, first compound 0.00316 µM)?
**A.** The viability, T/C was 59.9%.

**Q.** What about the viability, T/C (second compound 0.1 µM, first compound 0.01 µM) of the same compound?
**A.** Its viability, T/C is 28.5%.

**Q.** And the viability, T/C (second compound 0.1 µM, first compound 0.0316 µM)?
**A.** Its viability, T/C is 18.2%.

**Q.** And the viability, T/C (second compound 0.1 µM, first compound 0.1 µM)?
**A.** The viability, T/C was 16.5%.

**Q.** And the viability, T/C (second compound 0.1 µM, first compound 0.316 µM)?
**A.** The viability, T/C was 8.07%.

**Q.** And the viability, T/C (second compound 0.1 µM, first compound 1 µM)?
**A.** Its viability, T/C is 3%.

**Q.** What about the viability, T/C (second compound 0.316 µM, first compound 0.00316 µM) of the same compound?
**A.** The viability, T/C was 34.3%.

**Q.** And the viability, T/C (second compound 0.316 µM, first compound 0.01 µM)?
**A.** Its viability, T/C is 29.1%.

**Q.** What about the viability, T/C (second compound 0.316 µM, first compound 0.0316 µM) of the same compound?
**A.** The viability, T/C was 16.8%.

**Q.** What about the viability, T/C (second compound 0.316 µM, first compound 0.1 µM) of the same compound?
**A.** The viability, T/C was 13.8%.

**Q.** And the viability, T/C (second compound 0.316 µM, first compound 0.316 µM)?
**A.** Its viability, T/C is 6.27%.

**Q.** And the viability, T/C (second compound 0.316 µM, first compound 1 µM)?
**A.** The viability, T/C was 1.02%.

**Q.** What about the viability, T/C (second compound 1 µM, first compound 0.00316 µM) of the same compound?
**A.** Its viability, T/C is 34%.

**Q.** What about the viability, T/C (second compound 1 µM, first compound 0.01 µM) of the same compound?
**A.** The viability, T/C was 20.6%.

**Q.** What about the viability, T/C (second compound 1 µM, first compound 0.0316 µM) of the same compound?
**A.** Its viability, T/C is 10.7%.

**Q.** And the viability, T/C (second compound 1 µM, first compound 0.1 µM)?
**A.** Its viability, T/C is 8.46%.

**Q.** What about the viability, T/C (second compound 1 µM, first compound 0.316 µM) of the same compound?
**A.** The viability, T/C was 2.97%.

**Q.** What about the viability, T/C (second compound 1 µM, first compound 1 µM) of the same compound?
**A.** Its viability, T/C is 0.31%.

**Q.** What about the viability, T/C (second compound 3.16 µM, first compound 0.00316 µM) of the same compound?
**A.** Its viability, T/C is 31.6%.

**Q.** And the viability, T/C (second compound 3.16 µM, first compound 0.01 µM)?
**A.** Its viability, T/C is 16.2%.

**Q.** And the viability, T/C (second compound 3.16 µM, first compound 0.0316 µM)?
**A.** Its viability, T/C is 12.2%.

**Q.** What about the viability, T/C (second compound 3.16 µM, first compound 0.1 µM) of the same compound?
**A.** The viability, T/C was 6.75%.

**Q.** And the viability, T/C (second compound 3.16 µM, first compound 0.316 µM)?
**A.** Its viability, T/C is 4.2%.

**Q.** And the viability, T/C (second compound 3.16 µM, first compound 1 µM)?
**A.** The viability, T/C was 0.54%.

**Q.** And the viability, T/C (second compound 10 µM, first compound 0.00316 µM)?
**A.** The viability, T/C was 29.3%.

**Q.** And the viability, T/C (second compound 10 µM, first compound 0.01 µM)?
**A.** Its viability, T/C is 19.5%.

**Q.** And the viability, T/C (second compound 10 µM, first compound 0.0316 µM)?
**A.** Its viability, T/C is 11.5%.

**Q.** What about the viability, T/C (second compound 10 µM, first compound 0.1 µM) of the same compound?
**A.** Its viability, T/C is 5.96%.

**Q.** And the viability, T/C (second compound 10 µM, first compound 0.316 µM)?
**A.** Its viability, T/C is 2.11%.

**Q.** And the viability, T/C (second compound 10 µM, first compound 1 µM)?
**A.** Its viability, T/C is 0.68%.
